From US7312031B1, “Alpha-complementation viral fusion assay” (The Salk Institute for Biological Studies, priority 2002, dated 2007)

What was measured:
[1] = test system: fusion of 293T.CD4.Ω/CCR5 with 293T/ADA; test: alpha-complementation fusion assay, 293T.CD4.Ω/CCR5 with 293T/ADA; format: cell-based, human; conditions: FIG. 7-9, ADA Env (CCR5-specific)
Procedure: FIG. 7 depicts the fusion of 293T.CD4.Ω/CCR5 with 293T/ADA in the presence of TAK-779.
293T (ATCC cat #CRL-1573) or HeLa (ATCC cat #CCL-2) cells (2.5×10^6) were seeded in 10 cm plates 24 hours prior to transfection. The next morning, cells were transfected with 21 μg of DNA, 7 μg pSCTZ-alpha-N85, 7 μg pRSV-Rev (Hope et al., Proc. Nat'l. Acad. Sci. U.S.A. 87: 7787-91 (1990)) and 7 μg of envelope expression vector (pSV-ADA, pSV-JRFL (Deng et al., Nature 381: 661-666 (1996)), or pCAGGS-SF33 (York-Higgins et al., J. Virol. 64: 4016-4020 (1990)). […]
Remove the plates from the water bath, spin 4000 rpm (Eppendorf tabletop centrifuge) for 1 minute to firmly pellet cells, aspirate medium, and add 100 μl of Galacto-Star lysis buffer (Perkin-Elmer). […] After 60 minutes, read β-gal activity in plates in a Packard TopCount luminometer for 15 s/well. […]
Two days later, remove the transfected cells from plates by incubating with phosphate-buffered saline containing 5 mM EDTA. The cells are then counted on hemocytometer. […]
After four hours, read β-gal activity as in Example 1.

[2] = test system: fusion of 293T.CD4.Ω with 293T/SF33; test: alpha-complementation fusion assay, 293T.CD4.Ω with 293T/SF33; format: cell-based, human; conditions: FIG. 5 and 6; SF33 Env (CXCR4-specific); 293T.CD4.Ω stable line
Procedure: Remove the plates from the water bath, spin 4000 rpm (Eppendorf tabletop centrifuge) for 1 minute to firmly pellet cells, aspirate medium, and add 100 μl of Galacto-Star lysis buffer (Perkin-Elmer). Mix well and incubate at room temperature for 5 minutes. Spin lysates 5 minutes at 4000 rpm and transfer 10 μl to a black 96-well plate (Costar). Add 100 μl of Galacto-Star substrate using a multi-channel pipettor. After 60 minutes, read β-gal activity in plates in a Packard TopCount luminometer for 15 s/well.
Transfect 293 cells with expression vector for HIV envelope protein, B-gal-α and HIV-1 Rev. Vectors used express CCR5-specific Envs (JFRL, ADA) or CXCR4-specific Envs (SF33 or JC2) driven by the cytomegalovirus promoter. Transfect the cells by lipofection or calcium phosphate standard methods.
Harvest 293-CD4.CCR5.omega cells with PBS/EDTA and count.
Prepare a microtiter plate by adding 2.5×10^5 293-CD4.CCR5.omega cells to each well with a multi-channel pipettor or robot in a volume of 50 μl of medium. Add inhibitors at different concentrations to each of the wells, in duplicate. […]

| SMILES | inhibition of fusion reaction [1] | inhibition of fusion reaction [2] |
| --- | --- | --- |
| Cc1ccc(-c2ccc3c(c2)C=C(C(=O)Nc2ccc(C[N+](C)(C)C4CCOCC4)cc2)CCC3)cc1.[Cl-] [TAK-779] | inhibits the fusion reaction in a concentration-dependent manner |  |
| c1cc(CN2CCCNCCNCCCNCC2)ccc1CN1CCCNCCNCCCNCC1 [AMD3100] |  | inhibits the fusion reaction in a concentration-dependent manner |
